Results on 2 compounds are retold here after PMC6517080 (Chembiochem : a European journal of chemical biology, 2018).

Molecules are shown by their SMILES.

The target in the test is antithrombin (AT) (Homo sapiens, UniProt P01008). Put plainly: ITC. Type of test: binding.
Chain of antithrombin (AT) (P01008 33-464): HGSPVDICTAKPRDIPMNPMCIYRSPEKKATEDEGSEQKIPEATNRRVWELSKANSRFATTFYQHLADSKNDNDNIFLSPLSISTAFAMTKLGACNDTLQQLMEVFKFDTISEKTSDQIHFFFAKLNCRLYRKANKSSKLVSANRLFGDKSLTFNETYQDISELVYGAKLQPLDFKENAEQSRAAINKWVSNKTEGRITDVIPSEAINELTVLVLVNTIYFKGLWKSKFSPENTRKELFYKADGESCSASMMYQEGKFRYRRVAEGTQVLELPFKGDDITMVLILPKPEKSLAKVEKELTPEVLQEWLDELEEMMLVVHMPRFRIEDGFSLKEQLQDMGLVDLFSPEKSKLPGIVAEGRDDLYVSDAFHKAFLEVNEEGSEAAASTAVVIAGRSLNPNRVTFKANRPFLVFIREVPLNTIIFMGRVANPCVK

`O=C(O)[C@H]1O[C@@H](Oc2ccc([N+](=O)[O-])cc2)[C@H](O)[C@@H](O)[C@@H]1O[C@H]1O[C@H](COS(=O)(=O)O)[C@@H](O[C@@H]2O[C@@H](C(=O)O)[C@@H](O[C@H]3O[C@H](COS(=O)(=O)O)[C@@H](O[C@@H]4O[C@H](C(=O)O)[C@@H](O[C@H]5O[C@H](COS(=O)(=O)O)[C@@H](O)[C@H](O)[C@H]5NS(=O)(=O)O)[C@H](O)[C@H]4O)[C@H](OS(=O)(=O)O)[C@H]3NS(=O)(=O)O)[C@H](O)[C@H]2OS(=O)(=O)O)[C@H](O)[C@H]1NS(=O)(=O)O` [hexa-4] gave a Kd of 551 nM.

As for `O=C(O)[C@H]1O[C@@H](Oc2ccc([N+](=O)[O-])cc2)[C@H](O)[C@@H](O)[C@@H]1O[C@H]1O[C@H](COS(=O)(=O)O)[C@@H](O[C@@H]2O[C@@H](C(=O)O)[C@@H](O[C@H]3O[C@H](COS(=O)(=O)O)[C@@H](O[C@@H]4O[C@H](C(=O)O)[C@@H](O[C@H]5O[C@H](COS(=O)(=O)O)[C@@H](O)[C@H](O)[C@H]5NS(=O)(=O)O)[C@H](O)[C@H]4O)[C@H](OS(=O)(=O)O)[C@H]3NS(=O)(=O)O)[C@H](O)[C@H]2O)[C@H](O)[C@H]1NS(=O)(=O)O` [hexa-8], the Kd was found to be 1290 nM.
